Source: ChEMBL document CHEMBL5154749 (Eur J Med Chem, 2022)
The source made the active and inactive calls. The rule behind the calls is not given here.

Experiments:
[1] = Half life in Sprague-Dawley rat at 5 mg/kg, iv measured at 0.083 to 24 hrs by LC-MS/MS method; type: ADME, organism-based; conditions: in vivo, time 0.083-24 hrs
HT-29 [2] = assay: Induction of apoptosis in human HT-29 cells assessed as late apoptotic cells at 1 uM measured after 48 hrs in presence of AZD1390 by Annexin V-FITC/Propidium iodide staining based flow cytometry analysis (reference value: 0.63%); type: functional
[3] = target: Serine/threonine-protein kinase B-raf (Homo sapiens, UniProt P15056); assay: Inhibition of human recombinant B-raf (416 to end residue) using myelin-Bas as substrate incubated for 40 mins in presence of ATP by scintillation counting method
Chain of Serine/threonine-protein kinase B-raf (P15056 whole entry): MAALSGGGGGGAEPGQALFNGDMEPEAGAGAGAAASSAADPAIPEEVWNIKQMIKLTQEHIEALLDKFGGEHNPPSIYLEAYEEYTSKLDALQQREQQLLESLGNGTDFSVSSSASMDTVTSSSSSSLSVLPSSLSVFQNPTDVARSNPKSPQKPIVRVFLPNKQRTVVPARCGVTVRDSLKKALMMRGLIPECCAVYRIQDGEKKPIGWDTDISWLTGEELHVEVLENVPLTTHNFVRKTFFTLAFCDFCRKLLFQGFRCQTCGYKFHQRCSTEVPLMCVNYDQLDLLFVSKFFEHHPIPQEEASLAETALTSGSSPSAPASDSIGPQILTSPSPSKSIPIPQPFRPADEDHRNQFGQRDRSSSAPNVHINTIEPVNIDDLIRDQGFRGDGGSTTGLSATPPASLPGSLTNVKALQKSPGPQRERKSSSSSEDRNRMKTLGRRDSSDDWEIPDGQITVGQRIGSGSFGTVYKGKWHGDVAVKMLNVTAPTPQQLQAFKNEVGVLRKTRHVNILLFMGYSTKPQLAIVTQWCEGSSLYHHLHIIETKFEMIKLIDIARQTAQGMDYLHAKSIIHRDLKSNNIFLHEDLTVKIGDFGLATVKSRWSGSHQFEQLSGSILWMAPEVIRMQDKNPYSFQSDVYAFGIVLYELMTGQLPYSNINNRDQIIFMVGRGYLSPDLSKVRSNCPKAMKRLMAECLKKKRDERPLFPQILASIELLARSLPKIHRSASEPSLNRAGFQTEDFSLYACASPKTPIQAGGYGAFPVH

HT-29 [4] = assay: Induction of apoptosis in human HT-29 cells assessed as early apoptotic cells at 1 uM measured after 48 hrs by Annexin V-FITC/Propidium iodide staining based flow cytometry analysis (reference value: 1.55%); type: functional
LoVo [5] = assay: Antimigratory activity in human LoVo cells assessed as suppression of cell migration measured up to 48 hrs by wound healing assay; type: functional, cell-based; conditions: dose <= 1.0 µM, DDE = dose-dependent effect
MCF7 = assay: Antiproliferative activity against ATM proficient human MCF7 cells assessed as reduction in cell viability incubated for 72 hrs by MTT assay; type: functional, cell-based; conditions: dose 0.001-100 µM, DDE = dose-dependent effect
LoVo [6] = assay: Antitumor activity against human LoVo cells xenografted in NOD/SCID mouse assessed as tumor growth inhibition at 50 mg/kg, po BID for 30 days measured every 2 to 3 days; type: functional; conditions: 720 h, time 30 day, read-out: TGI
[7] = Cmax in Sprague-Dawley rat at 5 mg/kg, iv measured at 0.083 to 24 hrs by LC-MS/MS method; type: ADME, organism-based; parameters: dose 5 mg/kg, time 0.083-24 hrs, route iv; conditions: in vivo
[8] = target: T1, Serine/threonine-protein kinase ATR (Homo sapiens, UniProt Q13535); assay: Inhibition of ATR signalling in ATM-deficient human LoVo cells assessed as change in expression of Chk1 at up to 3 uM incubated for 1 hr followed by hydroxyurea addition measured after 4 hrs by Western blot analysis; type: cell-based; conditions: time 5.0 hrs
T1 sequence (Q13535 whole entry, looked up): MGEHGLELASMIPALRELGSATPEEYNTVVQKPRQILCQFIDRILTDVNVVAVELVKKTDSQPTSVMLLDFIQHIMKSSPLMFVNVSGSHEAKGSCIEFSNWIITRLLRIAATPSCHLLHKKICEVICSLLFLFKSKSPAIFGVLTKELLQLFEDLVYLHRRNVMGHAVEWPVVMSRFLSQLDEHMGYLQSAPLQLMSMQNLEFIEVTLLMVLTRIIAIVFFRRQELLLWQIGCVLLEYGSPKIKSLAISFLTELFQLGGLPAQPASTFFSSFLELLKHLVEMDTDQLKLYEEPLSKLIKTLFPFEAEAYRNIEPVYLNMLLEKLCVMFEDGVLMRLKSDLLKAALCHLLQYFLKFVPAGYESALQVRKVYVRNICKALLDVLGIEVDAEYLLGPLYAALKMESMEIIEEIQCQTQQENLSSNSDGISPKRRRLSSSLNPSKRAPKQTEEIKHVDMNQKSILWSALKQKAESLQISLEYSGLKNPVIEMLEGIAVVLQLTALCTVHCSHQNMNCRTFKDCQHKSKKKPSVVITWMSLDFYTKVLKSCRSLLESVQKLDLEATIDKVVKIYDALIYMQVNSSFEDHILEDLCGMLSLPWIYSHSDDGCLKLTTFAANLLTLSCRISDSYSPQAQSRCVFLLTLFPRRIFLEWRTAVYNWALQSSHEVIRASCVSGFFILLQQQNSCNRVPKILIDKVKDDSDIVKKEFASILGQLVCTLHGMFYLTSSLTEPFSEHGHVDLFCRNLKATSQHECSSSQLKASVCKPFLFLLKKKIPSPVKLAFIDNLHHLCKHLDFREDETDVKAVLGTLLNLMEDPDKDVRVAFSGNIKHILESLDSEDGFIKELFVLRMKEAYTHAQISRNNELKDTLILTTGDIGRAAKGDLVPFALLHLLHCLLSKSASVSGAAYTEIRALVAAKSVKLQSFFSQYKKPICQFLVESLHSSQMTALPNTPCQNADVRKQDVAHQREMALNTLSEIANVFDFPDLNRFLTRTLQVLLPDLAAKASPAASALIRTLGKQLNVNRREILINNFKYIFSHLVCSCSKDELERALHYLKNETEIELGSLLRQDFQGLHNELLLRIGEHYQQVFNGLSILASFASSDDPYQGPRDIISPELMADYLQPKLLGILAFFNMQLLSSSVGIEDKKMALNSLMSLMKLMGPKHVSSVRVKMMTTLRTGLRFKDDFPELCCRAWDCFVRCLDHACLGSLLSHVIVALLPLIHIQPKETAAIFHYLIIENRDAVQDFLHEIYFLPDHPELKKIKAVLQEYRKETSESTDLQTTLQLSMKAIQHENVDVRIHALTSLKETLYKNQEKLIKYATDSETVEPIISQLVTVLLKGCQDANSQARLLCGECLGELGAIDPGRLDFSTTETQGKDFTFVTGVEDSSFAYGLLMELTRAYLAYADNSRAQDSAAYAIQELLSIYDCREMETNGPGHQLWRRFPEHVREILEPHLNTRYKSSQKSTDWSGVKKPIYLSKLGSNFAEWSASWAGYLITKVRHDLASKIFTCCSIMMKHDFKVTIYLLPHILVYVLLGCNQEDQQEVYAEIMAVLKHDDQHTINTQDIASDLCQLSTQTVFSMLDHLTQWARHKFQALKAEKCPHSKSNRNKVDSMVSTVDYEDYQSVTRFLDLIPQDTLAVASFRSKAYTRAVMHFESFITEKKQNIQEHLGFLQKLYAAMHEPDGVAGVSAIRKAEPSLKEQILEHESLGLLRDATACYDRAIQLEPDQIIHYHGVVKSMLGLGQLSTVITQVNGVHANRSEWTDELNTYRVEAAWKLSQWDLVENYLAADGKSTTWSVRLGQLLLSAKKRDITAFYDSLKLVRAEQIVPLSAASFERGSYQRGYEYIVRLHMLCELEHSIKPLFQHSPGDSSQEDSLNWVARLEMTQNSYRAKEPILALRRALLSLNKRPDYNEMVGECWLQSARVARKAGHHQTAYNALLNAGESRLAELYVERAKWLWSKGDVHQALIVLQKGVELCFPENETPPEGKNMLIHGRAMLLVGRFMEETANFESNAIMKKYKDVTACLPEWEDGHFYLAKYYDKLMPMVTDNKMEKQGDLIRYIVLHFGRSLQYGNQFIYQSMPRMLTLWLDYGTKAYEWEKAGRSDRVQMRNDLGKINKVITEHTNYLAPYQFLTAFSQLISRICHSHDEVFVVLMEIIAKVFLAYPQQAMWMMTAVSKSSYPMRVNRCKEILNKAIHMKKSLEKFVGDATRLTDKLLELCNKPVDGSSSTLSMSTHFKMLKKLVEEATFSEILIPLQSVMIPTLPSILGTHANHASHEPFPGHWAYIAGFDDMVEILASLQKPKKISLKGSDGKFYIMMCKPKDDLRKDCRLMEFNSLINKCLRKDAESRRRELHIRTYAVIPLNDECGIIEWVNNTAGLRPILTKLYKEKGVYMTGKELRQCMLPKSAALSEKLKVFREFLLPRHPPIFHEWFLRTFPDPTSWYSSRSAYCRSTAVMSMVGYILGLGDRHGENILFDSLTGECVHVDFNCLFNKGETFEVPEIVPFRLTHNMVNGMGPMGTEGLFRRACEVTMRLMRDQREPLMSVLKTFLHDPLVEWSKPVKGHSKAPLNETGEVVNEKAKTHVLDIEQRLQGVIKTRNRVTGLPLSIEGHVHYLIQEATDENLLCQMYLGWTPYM

LoVo [9] = assay: Induction of apoptosis in human LoVo cells deficient in ATM assessed as late apoptotic cells at 1 uM measured after 24 hrs by Annexin V-FITC/Propidium iodide staining based flow cytometry analysis (reference value: 3.32%); type: functional
HT-29 [10] = assay: Induction of apoptosis in human HT-29 cells assessed as early apoptotic cells at 0.3 uM measured after 48 hrs in presence of AZD1390 by Annexin V-FITC/Propidium iodide staining based flow cytometry analysis (reference value: 3.81%); type: functional
[11] = Toxicity in NOD/SCID mouse xenografted with human LoVo cells assessed as damage in kidney at 50 to 100 mg/kg, po administered bid for 30 days measured after 2 hrs post last dose by H and E staining method; type: organism-based; conditions: in vivo, 720 h, dose 50-100 mg/kg, time 30 day
HT-29 [12] = assay: Induction of apoptosis in human HT-29 cells assessed as late apoptotic cells at 0.3 uM measured after 48 hrs in presence of AZD1390 by Annexin V-FITC/Propidium iodide staining based flow cytometry analysis (reference value: 0.63%); type: functional
HCT-116 = assay: Antiproliferative activity against ATM proficient human HCT-116 cells assessed as reduction in cell viability incubated for 72 hrs by MTT assay; type: functional, cell-based; conditions: dose 0.001-100 µM, DDE = dose-dependent effect
HT-29 [13] = assay: Induction of apoptosis in human HT-29 cells assessed as viable cells at 0.3 uM measured after 48 hrs by Annexin V-FITC/Propidium iodide staining based flow cytometry analysis (reference value: 97.01%); type: functional; conditions: read-out: Activity
HT-29 [14] = assay: Cytotoxicity against ATM proficient human HT-29 cells assessed as reduction in cell viability incubated for 72 hrs by MTT assay; type: functional, cell-based; conditions: dose 0.001-100 µM, DDE = dose-dependent effect
LoVo [15] = assay: In vivo induction of DNA damage in human LoVo cells xenografted in NOD/SCID mouse assessed as increase in gamma H2AX level administered orally twice a day for 30 days by immuno histochemical analysis; type: functional, organism-based; conditions: dose 50-100 mg/kg, route po, time 30.0 day, DDE = dose-dependent effect
LoVo [16] = assay: Induction of apoptosis in human LoVo cells deficient in ATM assessed as early apoptotic cells at 0.3 uM measured after 24 hrs by Annexin V-FITC/Propidium iodide staining based flow cytometric analysis (reference value: 4.20%); type: functional
[17] = target: T1, Serine/threonine-protein kinase ATR; assay: In vivo inhibition of ATR in human LoVo cells xenografted in NOD/SCID mouse assessed as inhibition of ATR phosphorylation at 50 to 100 mg/kg, po administered twice a day for 30 days by Western blot analysis; conditions: dose 50-100 mg/kg, time 30.0 day
LoVo [18] = assay: Induction of apoptosis in human LoVo cells deficient in ATM assessed as necrotic cells at 3 uM measured after 24 hrs by Annexin V-FITC/Propidium iodide staining based flow cytometry analysis (reference value: 0.84%); type: functional

With `C[C@@H]1COCCN1c1nc(-c2cccc3[nH]ccc23)nc2ccc(-c3ccnn3C)cc12` the half-life [1] was 1.37 h, the Activity (HT-29 [2]) was 9.54% and the IC50 [3] was 1.77 µM. For the same compound, the Activity (HT-29 [4]) was 2.32%, the Activity (LoVo [5]) was “Dde” and the Activity (MCF7) was “Dde”. The inhibition in vivo at 50 mg/kg (LoVo [6]) was 50%, the Cmax [7] was 3400 ng/mL and the inhibition [8] was “Active”. For the same compound, the Activity (LoVo [9]) was 20.93%, the Activity (HT-29 [10]) was 7.23% and the Activity [11] was “Non-Toxic”. The Activity (HT-29 [12]) was 9.85%, the Activity (HCT-116) was “Dde” and the viability at 0.3 µM (HT-29 [13]) was 95.4%. The Activity (HT-29 [14]) was “Dde”, the Activity (LoVo [15]) was “Dde” and the Activity (LoVo [16]) was 24.04%. For the same compound, the Activity [17] was “Active” and the Activity (LoVo [18]) was 3.01%.
